This assay deals with T1, KefF_Pa.
T1 construct: gene kefF
As to the kind of experiment: diphenylcarbazide Cr(VI) assay, Lineweaver-Burk. It counts as biochemical. Particulars: 1 mM NADH, 50 mM Tris-Cl pH 7.0, 22°C; read-out: KM (μM) ^b. An excerpt:
diphenylcarbazide Cr(VI) assay, Lineweaver-Burk on KefF_Pa

Usually Km stands for the substrate concentration at which the rate is half of its maximum. Turning to `[O]=[Cr](=[O])([OH])[OH]` [Cr(VI)], the Km came to 140 µM.
